Where two headings read alike, the source gives them in different places. Blank lines part the entries; values can stand above or below the molecule they belong to.
Experiments:
[1] = Stability test for ubidecarenone and vitamins/minerals under co-existence, mixed 1:1; type: physicochemical; conditions: for % residual amount of ubidecarenone: mixed 1:1, 40±2° C., 75±5 RH %; for effect of ingredient on stability of ubidecarenone: each ingredient singly mixed with ubidecarenone (Table 26)
[2] = cited from earlier work
[3] = Stability test for ubidecarenone and vitamins/minerals under co-existence at typical formulation ratio; type: physicochemical; conditions: ubidecarenone 50 mg, accelerated stability test
[4] = Stability test for ubidecarenone according to content of 90% ascorbic acid; type: physicochemical; conditions: text summary of Table 28
Description: The results are as follows.

- % residual amount of ubidecarenone ([1]; 2 weeks): 99.2%
- % residual amount of ubidecarenone ([1]; initial (regarded as 100.0%)): 100%
- residual amount of ubidecarenone, 2 weeks (%) ([3]; 2 weeks): 99.2%
- residual amount of ubidecarenone, Initial (%) ([3]; initial): 100%
Compound: COC1=C(OC)C(=O)C(C/C=C(\C)CC/C=C(\C)CC/C=C(\C)CC/C=C(\C)CC/C=C(\C)CC/C=C(\C)CC/C=C(\C)CC/C=C(\C)CC/C=C(\C)CCC=C(C)C)=C(C)C1=O [Ubidecarenone]
- solubility ([2]; in alcohol): insoluble
- solubility ([2]; in ether): highly soluble
- solubility ([2]; in water): insoluble

Compound: CC(=O)Oc1c(C)c(C)c2c(c1C)CCC(C)(CCC[C@H](C)CCC[C@H](C)CCCC(C)C)O2 (stereo partly drawn) [alpha-tocopherol acetate]
- effect of ingredient on stability of ubidecarenone [1]: excessively reduce the stability of ubidecarenone

- residual amount of ubidecarenone as content of ascorbic acid in sample tablet increases [4]: remarkably reduced
Compound: O=C1O[C@H]([C@@H](O)CO)C(O)=C1O [ascorbic acid]

Compound: C[N+](C)(C)CCO.O=C([O-])C(O)C(O)C(=O)O (stereo not drawn) [choline bitartrate]
- effect of ingredient on stability of ubidecarenone [1]: excessively reduce the stability of ubidecarenone

Compound: C=C1CC[C@H](O)C/C1=C/C=C1\CCC[C@]2(C)[C@@H]([C@H](C)CCCC(C)C)CC[C@@H]12 [dried cholecalciferol]
- effect of ingredient on stability of ubidecarenone [1]: excessively reduce the stability of ubidecarenone

Compound: CCCCCCCCCCCCCCCC(=O)OC/C=C(C)/C=C/C=C(C)/C=C/C1=C(C)CCCC1(C)C [retinol palmitate]
- effect of ingredient on stability of ubidecarenone [1]: excessively reduce the stability of ubidecarenone
